Source: patent US12178810B2 (priority 2016, dated 2024)

Columns and labels:
[1] = system: Healthy human male volunteers; assay: Retrospective analysis of the Phase 1 DDI study: heart rate and blood pressure at rest; assay type: in vivo
Source text: FIG. 2. […] By ‘t’ test—Wilcoxon matched-pairs signed rank test.
(§1) Healthy human male volunteers, 18-50 years of age. A total of 14 subjects were included in the study.
(§2) Two consecutive study periods separated by a washout period of at least three days. The sequence of events was the same for all subjects.
Particularly, the effect of tesofensine-metoprolol on heart rate and blood pressure at rest, was investigated.

healthy male subjects = settings: metoprolol alone; cited from earlier work
CYP2D6 = target: T1, CYP2D6 (Homo sapiens, UniProt P10635); assay: Phase 1 drug-drug interaction (DDI) study with metoprolol: metoprolol pharmacokinetics without and with tesofensine at steady state; assay type: in vivo; settings: metoprolol 50 mg single dose after 14 days tesofensine vs metoprolol alone
T1 construct: Healthy human male volunteers, 18-50 years of age; A total of 14 subjects were included in the study; from tissue; host or cells: in vivo, healthy human male volunteers (endogenous enzyme)
Source text: FIG. 1. PK of metoprolol after a single dosing in absence and presence of tesofensine at steady state.
as §1, §2

obese patients = settings: long-term treatment, corrected for placebo and diet effects; cited from earlier work

T1 sequence (P10635 whole entry): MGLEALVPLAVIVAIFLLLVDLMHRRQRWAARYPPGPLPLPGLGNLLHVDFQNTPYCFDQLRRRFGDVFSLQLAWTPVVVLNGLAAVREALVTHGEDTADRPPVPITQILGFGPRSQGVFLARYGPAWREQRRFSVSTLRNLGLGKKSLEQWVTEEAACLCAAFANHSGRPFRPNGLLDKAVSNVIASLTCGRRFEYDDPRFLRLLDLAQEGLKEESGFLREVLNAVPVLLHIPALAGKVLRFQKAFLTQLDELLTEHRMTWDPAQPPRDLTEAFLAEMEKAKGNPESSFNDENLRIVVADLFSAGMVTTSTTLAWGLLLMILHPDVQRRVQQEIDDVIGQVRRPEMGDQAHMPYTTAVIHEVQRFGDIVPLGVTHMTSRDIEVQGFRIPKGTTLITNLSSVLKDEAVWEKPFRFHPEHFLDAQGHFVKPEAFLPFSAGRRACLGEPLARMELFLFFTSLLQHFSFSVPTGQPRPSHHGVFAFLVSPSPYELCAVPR

SMILES | effect on tesofensine-induced increase in heart rate, 7 hours after single metoprolol dose ([1]; day 14, tesofensine treated subjects, 7 hours after metoprolol) | effect on heart rate, ~24 hours after single metoprolol dose ([1]; day 15, tesofensine treated subjects, ~24 hours after metoprolol) | decrease in supine diastolic blood pressure (healthy male subjects) | decrease in supine systolic blood pressure (healthy male subjects) | effect on metoprolol Cmax (CYP2D6) | effect on metoprolol Tmax (CYP2D6) | heart rate after 14 days of tesofensine vs prelevel ([1]; tesofensine only, day 14, p<0.01 vs prelevel) | diastolic BP after 14 days of tesofensine treatment ([1]; tesofensine only, vs pre-treatment) | systolic BP after 14 days of tesofensine treatment ([1]; tesofensine only, vs pre-treatment, not significant) | weight loss (obese patients)
COCCc1ccc(OCC(O)CNC(C)C)cc1 (stereo not shown) [metoprolol, 1-(Isopropylamino)-3-[4-(2-methoxyethyl)-phenoxy]-propan-2-ol] | normalize the tesofensine-induced increase in heart rate | disappeared | about 4 mmHg | about 4 mmHg | – | – | – | – | – | –
CCOC[C@@H]1[C@@H](c2ccc(Cl)c(Cl)c2)C[C@@H]2CC[C@H]1N2C [tesofensine, (1R,2R,3S,5S)-3-(3,4-dichlorophenyl)-2-(ethoxymethyl)-8-methyl-8-azabicyclo[3.2.1]octane] | – | – | – | – | no effect | no effect | Increase in heart rate | essentially not altered | increase systolic BP slightly | about 10%
